# Data published in publication PMC10988555, “Exploiting Co(III)-Cyclopentadienyl Complexes To Develop Anticancer Agents” (Inorganic Chemistry, 2024).
# Experiments:
# Fibroblasts = assay: Cell migration (scratch) assay; format: cell-based, human; conditions: IC50 concentrations, 24 h, normalized against DMSO (100%)
# Experimental: Fibroblasts were seeded in 24-well plates at a density of 4 × 10^5 cells/mL and grown in the same conditions as described previously until a confluent monolayer was obtained. […] Images of the Fibroblasts were captured right after the exposure (0 h) to the complexes and after 24 h of incubation at 37 °C and 5% (v/v) CO2 in a humidified atmosphere, using CytoSMART Lux2 Live Cell Imager (Axion biosystems, USA) and Ti–U Eclipse Inverted microscope (Nikon Instruments, Japan). Images were analyzed with the ImageJ MRO Wound Healing Tool or with the scratch assay measurement of the CytoSMART cloud portal for the Lux system.
# [1] = test system: MCF-7 (human breast cancer) cell line; assay: Antiproliferative activity, MTS assay, MCF-7; format: cell-based; conditions: for IC50: 48 h exposure, MTS assay
# Experimental: Human colorectal carcinoma cell line (HCT116), human breast cancer cell lines (MDA-MB-231 and MCF-7), and normal human primary dermal fibroblasts neonatal (PCS-201-010) cell line were grown in DMEM (Dulbecco’s modified Eagle’s medium) (Invitrogen Corp., Grand Island, NY, USA) supplemented with 10% (v/v) fetal bovine serum and 1% (v/v) antibiotic/antimycotic solution (Invitrogen Corp.). The human ovarian carcinoma (A2780) cell line was cultivated using RPMI (Roswell Park Memorial Institute) medium supplemented as in DMEM medium. The supplemented medium is named a complete medium. Cells were grown in an incubator with a humidified atmosphere at 5% (v/v) CO2 and 37 °C. All cell lines were purchased from ATCC (ATCC, American Type Culture Collection).
# The evaluation of the cytotoxic potential of complexes 1–4 was obtained through in vitro measurements of the antiproliferative activity of these complexes. Cells were plated in 96-well plates at 7.5 × 10^4 cells/mL and incubated at 37 °C with 5% (v/v) CO2. After 24 h, the culture medium was replaced with fresh medium (100 μL) containing 0.1–50 μM of the different complexes and incubated for 48 h in tumor cell lines or containing 0.1–100 μM of the different complexes and incubated for 48 h in fibroblasts. […] The fibroblast cell line was used as a control of the cytotoxicity of the complexes for healthy cells. Cell viability was evaluated using Cell Titer 96 Aqueous Non-Radioactive Cell Proliferation Assay (Promega, Madison, WI, USA) using 3-(4,5-dimethylthiazol-2-yl)-5-(3-carboxymethoxyphenyl)-2-(4-sulfophenyl)-2H-tetrazolium inner salt (MTS), as described previously.[60] In metabolically active cells, enzymes present in the mitochondria catalyze a reaction in which NADPH/NADH is produced. These enzymes reduce the MTS reagent into a brownish product, Formazan, which can be quantified by measuring the absorbance at 490 nm. The quantity of formazan produced is directly proportional to the number of viable cells in the culture. This quantification was executed with a Biorad microplate reader Model 680 (Bio-Rad, Hercules, CA, USA). Half maximal inhibitory concentration (IC50) was calculated using GraphPad Prism 6 (GraphPadSoftware). We have calculated the ratio between the IC50 of fibroblasts and the IC50 of HCT116, A2780, MDA-MB-231, or MCF-7 cell lines for complexes 1–4 that was named herein as the Selectivity index (SI). To ensure the solubility of the complexes in all biological assays, complex solutions were freshly prepared and well solubilized before addition to the cells.
# ROS in A2780 cell line = assay: Production of reactive oxygen species (H2DCF-DA flow cytometry); format: cell-based, human; conditions: A2780, IC50, 48 h, vs DMSO
# Experimental: The production of ROS was evaluated in the A2780 cell line, seeded in 6-well plates at a density of 2 × 10^5 cells/well, and incubated for 24 h at the same conditions as described above. […] Later, cells were washed with PBS 1×, detached from the wells with TE, and incubated with […] of 2′,7′-dichlorodihydrofluorescein diacetate (H2DCF-DA) (ThermoFisher Scientific, Waltham, MA, USA) in PBS 1× for 20 min at 37 °C. The data were obtained through an Attune acoustic focusing flow cytometer (ThermoFisher Scientific) and respective software.
# Calf Thymus DNA (CT-DNA) = assay: Calf thymus DNA binding assays (UV-vis, melting profile); conditions: UV spectroscopy, 25 μM complex
# Experimental: Calf Thymus DNA (CT-DNA) binding assay was performed through the UV–vis spectra from 230 to 700 nm on the spectrophotometer Evolution 300 UV–vis (Thermo Fischer Scientific, Waltham, MA, USA). It was used a filtered buffer (5 mM Tris–HCl, 50 mM NaCl, pH 7.02) for the dilution of 0–50 μM of CT-DNA and 25 μM of the complexes 2–4. Control solutions of CT-DNA, CT-DNA + DMSO, and DMSO were also prepared. All solutions were incubated for 24 h at 37 °C and then analyzed. CT-DNA concentration in […] had been determined at 260 nm in a NanoDrop2000 spectrophotometer (Thermo Scientific), using an extinction coefficient of 6600 M^–1 cm^–1. The dilution effect because of the addition of the DNA solution was corrected and the affinity constants were calculated according to eq 2: [drawing 2] 2 where [DNA] is the concentration of CT-DNA (per nucleotide phosphate), εa = Abs/[complex], εf is the extinction coefficient for the free complex, and εb is the extinction coefficient for [Co(η^5-C5H5)(PPh3)(NN)][(CF3SO3)2] when fully bound to DNA. DNA concentration (expressed as the molarity of phosphate groups) was determined with a NanoDrop 2000 spectrophotometer assuming ε260 = 6600 M^–1 cm^–1. A melting profile of 10 μM CT-DNA and 10 μM CT-DNA with 10 μM of the complexes 2–4, was also performed. Evagreen dye was added to all samples after a 1h 30 min incubation of CT-DNA with the complexes at 37 °C. Melting curves were analyzed in a Corbet RotorGene 6000 (Biorad, Spain) by a first incubation step at 37 °C for 5 min followed by a ramp from 37 to 95 °C with 90 s hold in the first step and 5 s hold in the next steps with green acquisition.
structure (smiles),measurement,setting,value
"Cc1ccnc(-c2cc(C)ccn2)c1.O=S(=O)([O-])C(F)(F)F.O=S(=O)([O-])C(F)(F)F.[Co+3].c1cc[cH-]c1.c1ccc(P(c2ccccc2)c2ccccc2)cc1 [Complex 2, [Co(η^5-C5H5)(PPh3)(Me2bipy)][(CF3SO3)2]]",cellular remission,Fibroblasts,80.2%
same,IC50,[1],> 50 µM
same,ROS production relative to control,ROS in A2780 cell line,only a slight increase in the % of ROS
same,effect on lowest-energy absorption band with increasing CT-DNA,Calf Thymus DNA (CT-DNA),a small hyperchromic effect
"O=S(=O)([O-])C(F)(F)F.O=S(=O)([O-])C(F)(F)F.[Co+3].c1cc[cH-]c1.c1ccc(P(c2ccccc2)c2ccccc2)cc1.c1cnc2c(c1)ccc1cccnc12 [Complex 3, [Co(η^5-C5H5)(PPh3)(phen)][(CF3SO3)2]]",cellular remission,Fibroblasts,76.9%
same,IC50,[1],> 50 µM
same,ROS production relative to control,ROS in A2780 cell line,1.7 ×
same,effect on lowest-energy absorption band with increasing CT-DNA,Calf Thymus DNA (CT-DNA),a hypochromic effect
"Nc1cc2cccnc2c2ncccc12.O=S(=O)([O-])C(F)(F)F.O=S(=O)([O-])C(F)(F)F.[Co+3].c1cc[cH-]c1.c1ccc(P(c2ccccc2)c2ccccc2)cc1 [Complex 4, [CoCp(PPh3)(NH2phen)][(CF3SO3)2]]",cellular remission,Fibroblasts,78.1%
same,IC50,[1],10.2 ± 0.1 µM
same,"Selectivity index (SI), MCF-7","[1]; IC50 fibroblasts/IC50 MCF-7, value with * calculated taking fibroblast IC50 as 100 μM (minimal value)",9.8*
same,ROS production relative to control,ROS in A2780 cell line,1.9 ×
same,effect on lowest-energy absorption band with increasing CT-DNA,Calf Thymus DNA (CT-DNA),a hypochromic effect
